Test system: P493-6 (myc "on") cells
Assay: Cell Proliferation Assay
Format: cell-based
Conditions: read-out: Cell prolif P493 72 h IC50; P493-6 cells, 72 h incubation
Experimental: P493-6 (myc “on”) cells were maintained in growth media (RPMI-1640, 10% FBS, 2 mM glutamine, 100 units/ml Penicillin and 100 μg/ml streptomycin) at 37° C. with 5% CO2. For compound assay, P493-6 cells were plated in 96-well V-bottom plates on the day of compound addition in 50 μl of growth media at a cell density of 200,000 cells/ml (10,000 cells/well). Compounds were serially diluted in 100% DMSO at 200-times the final concentration. Compounds were diluted 100-fold into growth media and then 50 μl of this mixture was added to cell plates making the final concentration of DMSO 0.5%. Cells were incubated with compound for 72 hrs at 37° C. with 5% CO2 and analyzed for antiproliferative effects either by Cell Titer Glo (Promega) or FACS analysis using the Viacount (Millipore) kit on the Guava instrument.

COc1ccc(OC(F)(F)F)cc1CC(=O)Nc1ccc(CCCCc2nnc(NC(=O)Cc3ccccn3)s2)nn1 [Cmpd 717]
IC50: 0.019 µM

Reference: patent US10278968B2, “Combination therapy with glutaminase inhibitors” (Calithera Biosciences, Inc., priority 2016, dated 2019)
